Reference: ChEMBL document CHEMBL4507291 (2021)

Columns and labels:
[1] = biological target: RAC-beta serine/threonine-protein kinase (Homo sapiens) (UniProt P31751)
[2] = biological target: Serine/threonine-protein kinase Nek5 (Homo sapiens) (UniProt Q6P3R8)
[3] = system: Epidermal growth factor receptor (Homo sapiens), P00533 [UNDEFINED MUTATION]
[4] = biological target: Cyclin-dependent kinase 13 (Homo sapiens) (UniProt Q14004)
[5] = biological target: Fibroblast growth factor receptor 4 (Homo sapiens) (UniProt P22455)
[6] = system: Phosphatidylinositol 4,5-bisphosphate 3-kinase catalytic subunit alpha isoform (Homo sapiens), P42336 [M1043I]
[7] = biological target: T1, Protein kinase C iota type (Homo sapiens) (UniProt P41743)
T1 sequence (whole entry): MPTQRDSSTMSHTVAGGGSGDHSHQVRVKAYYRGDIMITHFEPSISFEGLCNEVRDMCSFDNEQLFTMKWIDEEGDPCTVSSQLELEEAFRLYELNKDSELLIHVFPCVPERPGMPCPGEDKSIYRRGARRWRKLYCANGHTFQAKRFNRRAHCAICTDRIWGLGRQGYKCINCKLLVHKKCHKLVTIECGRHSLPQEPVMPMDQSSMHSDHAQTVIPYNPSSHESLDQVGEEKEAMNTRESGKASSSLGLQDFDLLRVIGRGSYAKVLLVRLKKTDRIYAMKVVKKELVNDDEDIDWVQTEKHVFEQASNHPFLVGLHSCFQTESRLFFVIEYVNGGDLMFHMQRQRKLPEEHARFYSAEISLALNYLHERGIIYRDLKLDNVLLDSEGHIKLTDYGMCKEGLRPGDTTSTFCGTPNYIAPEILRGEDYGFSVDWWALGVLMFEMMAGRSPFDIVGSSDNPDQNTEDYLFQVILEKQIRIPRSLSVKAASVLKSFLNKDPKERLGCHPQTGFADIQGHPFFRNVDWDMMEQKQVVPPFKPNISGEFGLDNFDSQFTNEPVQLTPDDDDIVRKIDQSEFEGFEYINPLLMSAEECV

[8] = biological target: Casein kinase I isoform gamma-2 (Homo sapiens) (UniProt P78368)
[9] = system: Serine/threonine-protein kinase B-raf (Homo sapiens), P15056 [V600E]
[10] = biological target: Casein kinase I isoform alpha-like (Homo sapiens) (UniProt Q8N752)
[11] = biological target: MAP/microtubule affinity-regulating kinase 3 (Homo sapiens) (UniProt P27448)
[12] = biological target: Cyclin-dependent kinase 15 (Homo sapiens) (UniProt Q96Q40)
[13] = biological target: T2, Alpha-2A adrenergic receptor (Homo sapiens) (UniProt P08913); settings: Compound concentration 10.0 uM
T2 sequence (whole entry): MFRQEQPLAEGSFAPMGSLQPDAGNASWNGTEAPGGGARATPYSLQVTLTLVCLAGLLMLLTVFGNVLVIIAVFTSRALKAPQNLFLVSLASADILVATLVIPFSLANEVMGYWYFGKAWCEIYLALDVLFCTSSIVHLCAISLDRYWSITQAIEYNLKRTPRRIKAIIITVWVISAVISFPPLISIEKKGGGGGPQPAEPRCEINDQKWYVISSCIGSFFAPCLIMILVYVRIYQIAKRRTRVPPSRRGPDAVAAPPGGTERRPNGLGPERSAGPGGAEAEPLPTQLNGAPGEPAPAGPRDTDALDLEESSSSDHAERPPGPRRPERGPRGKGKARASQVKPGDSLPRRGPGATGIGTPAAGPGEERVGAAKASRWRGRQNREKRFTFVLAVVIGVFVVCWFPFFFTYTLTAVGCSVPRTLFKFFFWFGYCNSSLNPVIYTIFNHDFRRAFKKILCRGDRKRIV

[14] = biological target: T3, Ephrin type-A receptor 1 (Homo sapiens) (UniProt P21709)
T3 sequence (whole entry): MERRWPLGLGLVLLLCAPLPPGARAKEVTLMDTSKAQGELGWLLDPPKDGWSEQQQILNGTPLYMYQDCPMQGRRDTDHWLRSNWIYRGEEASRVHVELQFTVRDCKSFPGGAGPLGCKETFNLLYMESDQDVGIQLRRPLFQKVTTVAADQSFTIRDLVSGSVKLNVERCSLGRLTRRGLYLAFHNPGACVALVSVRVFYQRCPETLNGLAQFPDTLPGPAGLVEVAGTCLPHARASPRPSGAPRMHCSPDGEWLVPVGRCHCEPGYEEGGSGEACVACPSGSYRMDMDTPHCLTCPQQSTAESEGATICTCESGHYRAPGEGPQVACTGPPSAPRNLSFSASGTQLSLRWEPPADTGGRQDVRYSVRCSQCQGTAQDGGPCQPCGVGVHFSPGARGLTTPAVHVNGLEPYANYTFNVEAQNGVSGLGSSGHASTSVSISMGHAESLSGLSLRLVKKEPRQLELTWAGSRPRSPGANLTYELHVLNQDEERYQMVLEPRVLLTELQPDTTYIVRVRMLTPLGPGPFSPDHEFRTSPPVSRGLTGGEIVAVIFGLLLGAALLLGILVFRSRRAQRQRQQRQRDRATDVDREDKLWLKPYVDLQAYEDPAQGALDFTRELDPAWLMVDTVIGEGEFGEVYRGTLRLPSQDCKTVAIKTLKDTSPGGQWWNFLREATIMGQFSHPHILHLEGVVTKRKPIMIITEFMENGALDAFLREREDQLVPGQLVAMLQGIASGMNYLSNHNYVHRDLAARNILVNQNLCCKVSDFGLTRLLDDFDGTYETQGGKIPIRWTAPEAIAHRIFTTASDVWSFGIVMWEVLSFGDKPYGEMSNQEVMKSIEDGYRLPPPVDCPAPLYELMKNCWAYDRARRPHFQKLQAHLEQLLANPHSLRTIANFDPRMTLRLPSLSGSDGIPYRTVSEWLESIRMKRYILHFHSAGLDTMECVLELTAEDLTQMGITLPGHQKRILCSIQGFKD

[15] = biological target: Mitogen-activated protein kinase kinase kinase 11 (Homo sapiens) (UniProt Q16584)
[16] = biological target: Ribosomal protein S6 kinase alpha-6 (Homo sapiens) (UniProt Q9UK32)
[17] = biological target: cAMP-dependent protein kinase catalytic subunit beta (Homo sapiens) (UniProt P22694)
[18] = Compound concentration 100.0 nM
[19] = Compound concentration 1000.0 nM

MAP/microtubule affinity-regulating kinase 3 (Homo sapiens), sequence (P27448 whole entry, looked up): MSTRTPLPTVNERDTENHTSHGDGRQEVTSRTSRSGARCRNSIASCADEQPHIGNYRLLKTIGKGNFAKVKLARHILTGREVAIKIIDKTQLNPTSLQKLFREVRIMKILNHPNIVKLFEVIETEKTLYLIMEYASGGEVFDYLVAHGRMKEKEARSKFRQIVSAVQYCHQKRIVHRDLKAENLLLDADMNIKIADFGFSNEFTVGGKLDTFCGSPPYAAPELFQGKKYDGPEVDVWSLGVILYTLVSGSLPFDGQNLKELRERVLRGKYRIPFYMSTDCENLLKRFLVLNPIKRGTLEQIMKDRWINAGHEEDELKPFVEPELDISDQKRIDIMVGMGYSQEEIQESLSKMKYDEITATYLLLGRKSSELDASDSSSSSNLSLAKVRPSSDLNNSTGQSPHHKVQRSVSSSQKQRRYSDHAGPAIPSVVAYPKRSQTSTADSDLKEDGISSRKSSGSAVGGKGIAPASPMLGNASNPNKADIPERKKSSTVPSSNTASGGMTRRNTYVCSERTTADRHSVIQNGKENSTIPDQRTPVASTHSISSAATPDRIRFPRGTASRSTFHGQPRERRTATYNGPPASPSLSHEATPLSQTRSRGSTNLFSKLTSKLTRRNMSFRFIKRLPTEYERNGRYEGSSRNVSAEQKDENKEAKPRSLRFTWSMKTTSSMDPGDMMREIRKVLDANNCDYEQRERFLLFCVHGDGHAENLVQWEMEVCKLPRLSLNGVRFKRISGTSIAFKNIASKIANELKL
Cyclin-dependent kinase 15 (Homo sapiens), sequence (Q96Q40 whole entry): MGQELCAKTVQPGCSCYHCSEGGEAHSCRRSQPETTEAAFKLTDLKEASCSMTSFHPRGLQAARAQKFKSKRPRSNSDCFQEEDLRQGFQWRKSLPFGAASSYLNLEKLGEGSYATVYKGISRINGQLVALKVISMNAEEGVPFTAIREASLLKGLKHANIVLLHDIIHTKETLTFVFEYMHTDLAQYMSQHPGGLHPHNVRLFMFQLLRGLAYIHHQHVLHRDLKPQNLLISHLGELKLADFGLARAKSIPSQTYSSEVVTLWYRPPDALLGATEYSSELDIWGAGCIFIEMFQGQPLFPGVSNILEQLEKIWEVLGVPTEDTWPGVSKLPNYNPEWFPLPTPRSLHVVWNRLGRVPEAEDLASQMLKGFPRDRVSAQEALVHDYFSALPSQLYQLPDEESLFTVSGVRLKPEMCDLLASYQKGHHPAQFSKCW
Ribosomal protein S6 kinase alpha-6 (Homo sapiens), sequence (Q9UK32 whole entry): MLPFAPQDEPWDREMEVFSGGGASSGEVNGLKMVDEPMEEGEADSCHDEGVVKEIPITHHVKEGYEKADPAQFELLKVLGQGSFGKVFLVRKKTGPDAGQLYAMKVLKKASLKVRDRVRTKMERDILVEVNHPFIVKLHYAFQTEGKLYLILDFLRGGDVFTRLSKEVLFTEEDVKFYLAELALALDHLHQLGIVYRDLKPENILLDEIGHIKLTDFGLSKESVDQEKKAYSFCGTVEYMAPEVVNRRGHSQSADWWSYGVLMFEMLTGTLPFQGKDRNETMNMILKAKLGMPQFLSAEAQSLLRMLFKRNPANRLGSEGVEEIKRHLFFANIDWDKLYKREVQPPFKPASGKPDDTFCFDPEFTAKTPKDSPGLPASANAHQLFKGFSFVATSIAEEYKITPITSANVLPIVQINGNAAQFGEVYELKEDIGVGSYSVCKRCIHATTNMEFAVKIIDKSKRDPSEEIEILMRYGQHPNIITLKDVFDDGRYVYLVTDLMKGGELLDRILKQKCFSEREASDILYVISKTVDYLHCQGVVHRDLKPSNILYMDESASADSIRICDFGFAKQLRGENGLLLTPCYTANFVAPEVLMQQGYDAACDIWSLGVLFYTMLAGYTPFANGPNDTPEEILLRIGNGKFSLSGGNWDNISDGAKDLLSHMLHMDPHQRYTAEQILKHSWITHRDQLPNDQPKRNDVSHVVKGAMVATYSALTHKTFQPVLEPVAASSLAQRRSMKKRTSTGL
Serine/threonine-protein kinase Nek5 (Homo sapiens), sequence (Q6P3R8 whole entry): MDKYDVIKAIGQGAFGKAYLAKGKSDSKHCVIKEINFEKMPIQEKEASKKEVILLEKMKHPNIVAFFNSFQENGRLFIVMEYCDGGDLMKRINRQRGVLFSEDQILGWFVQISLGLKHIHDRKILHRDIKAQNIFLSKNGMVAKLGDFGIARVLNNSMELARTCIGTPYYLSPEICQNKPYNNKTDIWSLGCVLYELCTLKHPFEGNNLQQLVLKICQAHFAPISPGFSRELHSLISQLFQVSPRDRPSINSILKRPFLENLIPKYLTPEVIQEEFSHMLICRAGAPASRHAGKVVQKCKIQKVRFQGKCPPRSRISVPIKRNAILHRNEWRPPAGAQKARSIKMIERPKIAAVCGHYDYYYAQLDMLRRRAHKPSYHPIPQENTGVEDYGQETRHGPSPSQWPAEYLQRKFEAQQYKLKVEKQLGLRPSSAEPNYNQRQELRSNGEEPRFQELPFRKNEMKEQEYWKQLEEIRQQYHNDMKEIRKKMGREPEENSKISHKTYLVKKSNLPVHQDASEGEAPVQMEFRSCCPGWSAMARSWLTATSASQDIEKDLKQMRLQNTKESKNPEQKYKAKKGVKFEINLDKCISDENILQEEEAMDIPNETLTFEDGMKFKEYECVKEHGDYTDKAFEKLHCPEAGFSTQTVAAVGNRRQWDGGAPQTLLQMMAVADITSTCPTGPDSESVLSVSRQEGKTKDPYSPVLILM
Serine/threonine-protein kinase B-raf (Homo sapiens), P15056 [V600E], sequence (P15056 whole entry V600E, canonical isoform): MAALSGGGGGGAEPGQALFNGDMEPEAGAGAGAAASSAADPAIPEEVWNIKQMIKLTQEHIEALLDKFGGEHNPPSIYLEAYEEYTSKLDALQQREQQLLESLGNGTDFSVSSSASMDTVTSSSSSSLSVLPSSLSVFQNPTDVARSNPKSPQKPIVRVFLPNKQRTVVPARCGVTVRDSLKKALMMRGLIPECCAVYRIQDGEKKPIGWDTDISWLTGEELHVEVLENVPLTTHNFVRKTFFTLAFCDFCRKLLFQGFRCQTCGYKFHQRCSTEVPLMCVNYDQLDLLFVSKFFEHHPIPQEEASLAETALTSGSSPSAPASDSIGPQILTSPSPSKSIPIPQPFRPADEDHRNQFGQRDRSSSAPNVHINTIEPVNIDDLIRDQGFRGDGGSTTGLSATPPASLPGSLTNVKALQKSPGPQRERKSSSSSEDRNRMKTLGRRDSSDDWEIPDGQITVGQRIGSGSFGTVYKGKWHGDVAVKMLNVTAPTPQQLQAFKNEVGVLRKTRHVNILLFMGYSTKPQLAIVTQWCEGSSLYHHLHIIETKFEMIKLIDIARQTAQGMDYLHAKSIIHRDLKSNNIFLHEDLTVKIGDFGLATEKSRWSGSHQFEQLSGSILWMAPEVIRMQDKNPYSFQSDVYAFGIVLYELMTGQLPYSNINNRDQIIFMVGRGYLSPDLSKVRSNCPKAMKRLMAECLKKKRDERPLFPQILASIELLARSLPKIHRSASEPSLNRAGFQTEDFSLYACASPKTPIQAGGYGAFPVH
Mitogen-activated protein kinase kinase kinase 11 (Homo sapiens), sequence (Q16584 whole entry, looked up): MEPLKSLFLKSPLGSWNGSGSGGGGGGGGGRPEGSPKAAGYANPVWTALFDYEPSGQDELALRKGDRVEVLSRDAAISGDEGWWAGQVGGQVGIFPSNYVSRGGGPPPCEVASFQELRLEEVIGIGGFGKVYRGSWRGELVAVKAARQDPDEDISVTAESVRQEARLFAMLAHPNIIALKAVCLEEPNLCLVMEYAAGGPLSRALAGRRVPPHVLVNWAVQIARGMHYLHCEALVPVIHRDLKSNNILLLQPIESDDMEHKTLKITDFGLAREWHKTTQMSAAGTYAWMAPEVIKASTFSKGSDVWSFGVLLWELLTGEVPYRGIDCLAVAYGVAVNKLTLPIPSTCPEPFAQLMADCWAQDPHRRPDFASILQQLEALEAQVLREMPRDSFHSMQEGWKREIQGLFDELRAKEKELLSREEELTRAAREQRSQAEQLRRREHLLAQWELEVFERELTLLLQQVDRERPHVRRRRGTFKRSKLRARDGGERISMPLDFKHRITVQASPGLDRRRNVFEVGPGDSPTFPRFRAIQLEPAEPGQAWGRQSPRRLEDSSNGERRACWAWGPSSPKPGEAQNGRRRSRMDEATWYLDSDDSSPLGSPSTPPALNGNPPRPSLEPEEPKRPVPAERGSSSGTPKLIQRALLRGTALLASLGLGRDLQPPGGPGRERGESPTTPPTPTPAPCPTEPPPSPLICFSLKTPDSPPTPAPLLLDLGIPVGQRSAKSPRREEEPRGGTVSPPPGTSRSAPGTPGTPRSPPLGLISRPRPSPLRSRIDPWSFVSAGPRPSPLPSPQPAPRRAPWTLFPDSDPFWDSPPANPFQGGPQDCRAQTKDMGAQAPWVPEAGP
RAC-beta serine/threonine-protein kinase (Homo sapiens), sequence (P31751 whole entry): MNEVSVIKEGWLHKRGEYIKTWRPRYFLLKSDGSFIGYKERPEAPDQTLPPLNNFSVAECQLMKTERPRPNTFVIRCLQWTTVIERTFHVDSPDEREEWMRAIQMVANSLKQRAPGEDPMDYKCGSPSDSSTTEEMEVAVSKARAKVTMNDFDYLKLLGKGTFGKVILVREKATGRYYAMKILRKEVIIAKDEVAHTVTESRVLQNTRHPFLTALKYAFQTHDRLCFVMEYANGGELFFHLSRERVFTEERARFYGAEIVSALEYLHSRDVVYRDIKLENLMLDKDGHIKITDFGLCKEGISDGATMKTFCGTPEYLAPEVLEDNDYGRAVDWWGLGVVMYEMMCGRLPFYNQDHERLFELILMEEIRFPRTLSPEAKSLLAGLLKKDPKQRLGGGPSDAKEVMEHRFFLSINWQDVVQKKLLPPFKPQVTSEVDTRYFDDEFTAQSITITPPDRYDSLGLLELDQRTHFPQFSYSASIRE

C[C@@H]1CN(c2cc(-c3n[nH]c4ccc(OC5(C)CC5)cc34)ncn2)C[C@H](C)O1 [MLi-2]
inactive: residual activity [1, 18] 100% | residual activity [2, 18] 100% | residual activity [3, 18] 73% | residual activity [4, 18] 84% | residual activity [5, 18] 100% | residual activity [6, 18] 82% | residual activity [7, 18] 80% | residual activity [8, 18] 100% | residual activity [9, 18] 89% | residual activity [10, 18] 100% | residual activity [11, 18] 73% | residual activity [12, 18] 100% | inhibition [13] -2.84% | residual activity [14, 18] 76% | residual activity [15, 18] 100% | residual activity [16, 18] 77% | residual activity [17, 18] 91%

C[C@@H]1CN(c2cc(-c3nn(C)c4ccc(OC5(C)CC5)cc34)ncn2)C[C@H](C)O1 [MLi-2-NC]
inactive: residual activity [1, 19] 89% | residual activity [2, 19] 100% | residual activity [3, 19] 97% | residual activity [4, 19] 86% | residual activity [5, 19] 100% | residual activity [6, 19] 96% | residual activity [7, 19] 100% | residual activity [8, 19] 100% | residual activity [9, 19] 91% | residual activity [10, 19] 78% | residual activity [11, 19] 100% | residual activity [12, 19] 84% | inhibition [13] 12.9% | residual activity [14, 19] 100% | residual activity [15, 19] 100% | residual activity [16, 19] 78% | residual activity [17, 19] 100%
